Assays:
OCI-Ly3 cells = assay: Measurement of growth inhibitory activity using OCI-Ly3 cells; format: cell-based; details: Homo sapiens, 144 h, 3 μM compound, 6 days, Cell Titer-Glo, read-out: Cell growth inhibition rate (%) at 3 μM compound
Description: Measurement of Growth Inhibitory Activity Using OCI-Ly3 Cells
OCI-Ly3 cells were seeded in a cell culture medium IMDM (Fujifilm Wako Pure Chemical Corporation) containing 20% FCS (fetal calf serum, Thermo Fisher Scientific) and monothioglycerol (Fujifilm Wako Pure Chemical Corporation) so as to be at 1.25×10^3 cells/well on a 96-well plate. […] Subsequently, the luminescence value was measured with Envision (PerkinElmer) on the day of seeding. […] Subsequently, the luminescence value was measured in the same manner. The inhibition rate (%) of the test compound on OCI-Ly3 cell growth was calculated by the following formula. Cell growth inhibition rate (%)=(1−(Luminescent value on day 6 of test compound treatment−Luminescent value before test compound treatment)/(Luminescent value on day 6 without compound addition−Luminescent value before compound treatment))×100

[1] = tested on: OCI-Ly3 subcutaneously transplanted tumor; assay: Antitumor effect on OCI-Ly3 cell-bearing cancer model; format: in vivo, NOG female mice; details: 10 mg/kg orally twice daily for 3 weeks; average tumor volume increase ratio vs control; NOG mice bearing OCI-Ly3
Description: Antitumor Effect on OCI-Ly3 Cell-Bearing Cancer Model Human diffuse large-cell B-cell lymphoma cells OCI-Ly3 (DSMZ, German Collection of Microorganisms and Cell Cultures) were suspended in a Matrigel (BD Biosciences):HBSS (Thermo Fisher Scientific)=1:1 solution, and 1×10^7 cells were transplanted subcutaneously into the abdomen of NOG female mice (CLEA Japan, Inc.). The tumor diameter of the engrafted tumor was measured, and the tumor volume was calculated by the following formula. Tumor volume=major axis×minor axis×minor axis×(1/2) Individuals with the engrafted tumor having a tumor volume of about 120 mm^3 were selected, and 6 animals per group were used in the experiment. A suspension of the test compound in 0.5% methylcellulose solution (Fujifilm Wako Pure Chemical Corporation) was orally administered at a dose of 10 mg/kg (10 mL/kg) twice daily for 3 weeks. The tumor volume was measured on the day before the start of administration and every 3 to 4 days over time, and the tumor diameter was finally measured the day after the end of administration for 21 days to calculate the tumor volume. The tumor growth of the test compound-administered group compared with the control-administered group was calculated by the following formula as an average tumor volume increase ratio T/C. […]

| SMILES | inhibition at 3 µM (OCI-Ly3 cells) | T/C (%) [1] |
| --- | --- | --- |
| CO[C@@H](C)c1c(NC(=O)Nc2cnc(-n3nccn3)c(C(F)(F)F)c2)cnc2ccc(Cl)nc12 [Compound X1, (S)—N-(6-Chloro-4-(1-methoxyethyl)-1,5-naphthyridine-3-yl)-N′-(6-(2H-1,2,3-triazole-2-yl)-5-(trifluoromethyl)pyridine-3-yl)urea] | 97% | 2.0% |
| CO[C@@H](C)c1c(NC(=O)Nc2cnc(-n3nccn3)c(C(F)(F)F)c2)cnc2ccc(C)nc12 [Compound X2, (S)—N-(4-(1-methoxyethyl)-6-methyl-1,5-naphthyridine-3-yl)-N′-(6-(2H-1,2,3-triazole-2-yl)-5-(trifluoromethyl)pyridine-3-yl)urea] | 99% | 38.7% |
